Test results taken from paper PMC11868579 (Nature Communications, 2024).
“And” between values parts separate entries of the source, which are not always exact repeats. Equal values may be shown once.

Assays:
eIF4E:eIF4G interaction [1] = target: T1, eIF4E:eIF4G interaction (Homo sapiens, UniProt P06730); test: Electro-chemiluminescent binding assay, eIF4E:eIF4G, H1299 cell lysates; assay type: biochemical; set-up: endogenous in cells; host or cells: HeLa, SW620 or H1299 cells (lysates; intact H1299 cells in A13); conditions: for endogenous eIF4E:eIF4G interaction, electro-chemiluminescent signal, Average: n=3, 0 μM control in r69
Protocol: (§1) This assay uses plates with carbon electrodes and electro-chemiluminescent labels (SULFO-TAGs) that are conjugated to detection antibodies. When an electric current is applied to the plate electrodes the SULFO-TAG labels will emit light that is measured to quantify analytes in the sample. […] The plates were washed with 3 ×150 µl/well MSD wash buffer (cat#R61AA-1; 0.2% Tween-20 in PBS), then blocked with 150 µl/well block buffer (MSD, cat# R93AA) for 1 h. […] The incubated plates were washed 4x in 150 µl in MSD wash buffer and were re-blocked by the addition of 25 μl of blocking buffer containing a 1:500 dilution of the secondary antibody and incubated for 1 hr at RT with rotational shaking. […] Plates were then washed again 4x in 150 µl in MSD wash buffer and 25 μl of a 1:50 dilution of Goat anti-rabbit Sulfo-Tag (MSD, Cat# R32AB-1) in MSD blocking buffer was added and the plates incubated for 1 h at RT with rotational shaking. After a final wash step, 150 μl Read Buffer T4X (MSD, Cat# R92-TC2) was added and the plate read using the MSD QuickPlex SQ 120 plate reader.

[2] = target: T2, eIF4E major variant (D127) (Homo sapiens, UniProt P06730); assay type: binding; conditions: for LE (ligand efficiency) / Kd: major variant D127 (values in parentheses); for Kd: read-out: eIF4E Kd
T2 construct: made in house; host or cells: E. coli (as described for clone 2983)
Protocol: ITC experiments were performed on either a MicroCal VP-ITC or a MicroCal Auto-ITC200 at 25 °C in a buffer comprising 50 mM HEPES, 100 mM NaCl, 1 mM TCEP and 5% DMSO at pH 7.5. Typical titrations on the MicroCal VP-ITC were performed using 17 × 16.4 µL injections with a 250 s spacing between each injection and with a stirring speed of 307 rpm. Typical titrations on the MicroCal Auto-ITC200 were performed using 12 × 3 µL injections with a 150 s spacing between each injection and with a stirring speed of 750 rpm. ITC data analyses were performed with Origin 7.0 software using the “One Set of Sites” model.

eIF4E:eIF4G interaction [3] = target: T1, eIF4E:eIF4G interaction; test: Electro-chemiluminescent binding assay, eIF4E:eIF4G, HeLa cell lysates; assay type: biochemical; set-up: endogenous in cells; host or cells: HeLa cells (lysates); conditions: for EC50: n = 4, read-out: Inhibition of PPI in HeLa cells: eIF4E-eIF4G interaction; for binding of eIF4G or 4E-BP1 with eIF4E, luminescence normalised to DMSO control, Average: HeLa, n=3, Fig. 4e
Protocol: as §1

MCL1 protein expression = test: Immunoblot of MCL1 in eIF4E-dTAG clones and rescue models; assay type: cell-based, human; conditions: for Quantification of MCL1 immunoblot signals using Image J, Average: Cont = 100; for Quantification of MCL1 (6hr) immunoblot signal using Image J, Average: 0.5 μM, control = 100
Protocol: One sample t and Wilcoxon tests (two-sided), using 100% as hypothetical control value, were performed and compared with the control in each cell line. b, c Real-time cell growth measurements monitored every 4 h over a 6-day period. Cell confluency (%) was calculated using Incucyte Zoom software and (mean ± SEM n = 3 biological replicates). Ordinary one-way ANOVA with Tukey multiple comparisons test compared treatment with the control in each cell line. […] Vinculin was used as loading control. H1299 (PAR) cell lines were treated with 1 μM dTAG^V-1 only as qualitative control. Vinculin was used as loading control. […] Significant p-values (< 0.05) are shown on the plots and the source data is located in the Source Data file.
After seeding overnight in 6 well plates (Corning, cat#353046), cells were treated with compounds for the indicated times and concentration, harvested and the cell pellet lysed on ice in cell lysis buffer (Cell Signaling, cat#9803), supplemented with 1x Halt^TM protease inhibitor cocktail (Fisher Scientific, cat#78429) and cOmplete^TM protease inhibitor cocktail (Sigma-Aldrich, cat#11836153001) for 1 hr. Protein was quantified using BCA protein kit (Fisher Scientific, cat#23225). Western blot was performed using NuPAGE^TM 4–12% Bis-Tris gels (Fisher Scientific, cat#NP0336BOX) and transferred using the Invitrogen iBLOT^TM gel transfer device system (Fisher Scientific, Cat#IB21001). […] All primary antibodies were diluted (1:1000) in 5% BSA (Sigma-Aldrich, cat#A7906) in 1x TBS and 0.1% Tween 20 (Sigma-Aldrich, cat#P1379), except for vinculin (1:2000) that was diluted in casein blocker (Sigma-Aldrich, cat#1610782). This was followed by incubation with the secondary HRP-conjugated antibodies (anti-mouse HRP, Bio-rad, Watford, UK, cat#1705047; anti-rabbit HRP, Sigma-Aldrich, cat#NA934) in casein for 1 h at RT. ECL HRP substrate (SuperSignalTM West Pico, Fisher Scientific, cat#34578) was then added to detect protein targets by chemiluminescence and images acquired using the ChemiDocTM system (Bio-Rad). Quantitative densitometry analysis of protein bands was performed using Image J v1.53 software.

T1 sequence (P06730 2-217 limits assumed): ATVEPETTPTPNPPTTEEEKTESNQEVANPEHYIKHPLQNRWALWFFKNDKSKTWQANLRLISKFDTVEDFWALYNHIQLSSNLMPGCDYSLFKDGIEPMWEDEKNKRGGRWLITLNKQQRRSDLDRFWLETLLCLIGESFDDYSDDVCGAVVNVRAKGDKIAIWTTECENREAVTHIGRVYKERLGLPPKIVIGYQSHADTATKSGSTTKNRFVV
T2 sequence (P06730 with tags, fused parts or gaps): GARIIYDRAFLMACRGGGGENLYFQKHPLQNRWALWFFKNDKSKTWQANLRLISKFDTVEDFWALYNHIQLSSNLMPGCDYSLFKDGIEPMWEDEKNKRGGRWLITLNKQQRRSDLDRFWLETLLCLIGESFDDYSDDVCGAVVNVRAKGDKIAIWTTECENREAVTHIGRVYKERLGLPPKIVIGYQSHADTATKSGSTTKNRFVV

## CC[C@@H](O[C@H](C)CO)c1ccc(-c2ccccc2F)cc1NCCO [Compound 5]
eIF4E:eIF4G interaction [1]; 0.1 μM
  endogenous eIF4E:eIF4G interaction, electro-chemiluminescent signal, Average: 815674.7
eIF4E:eIF4G interaction [1]; 1 μM
  endogenous eIF4E:eIF4G interaction, electro-chemiluminescent signal, Average: 773437.1
eIF4E:eIF4G interaction [1]; 10 μM
  endogenous eIF4E:eIF4G interaction, electro-chemiluminescent signal, Average: 757778.5
eIF4E:eIF4G interaction [1]; 100 µM
  inhibition of eIF4G:eIF4E binding: ~ 10%
eIF4E:eIF4G interaction [1]; 100 μM
  endogenous eIF4E:eIF4G interaction, electro-chemiluminescent signal, Average: 644050.9
[2]; compound 5 versus compound 4
  reduced binding affinity by ITC: 30 fold
[2]
  LE (ligand efficiency): - (0.3) (kcal/mol)/heavy atom
[2]; ITC
  Kd: 3 µM
eIF4E:eIF4G interaction [3]; HeLa cell lysates
  effect on eIF4G binding: limited effect on eIF4G binding compared to 4
  EC50: > 100 µM
eIF4E:eIF4G interaction [3]; Conc 0.03 μM
  binding of eIF4G or 4E-BP1 with eIF4E, luminescence normalised to DMSO control, Average: 75.0%
eIF4E:eIF4G interaction [3]; Conc 0.1 μM
  binding of eIF4G or 4E-BP1 with eIF4E, luminescence normalised to DMSO control, Average: 70.5%
eIF4E:eIF4G interaction [3]; Conc 0.3 μM
  binding of eIF4G or 4E-BP1 with eIF4E, luminescence normalised to DMSO control, Average: 80.4%
eIF4E:eIF4G interaction [3]; Conc 1 μM
  binding of eIF4G or 4E-BP1 with eIF4E, luminescence normalised to DMSO control, Average: 86.3%
eIF4E:eIF4G interaction [3]; Conc 3 μM
  binding of eIF4G or 4E-BP1 with eIF4E, luminescence normalised to DMSO control, Average: 81.2%
eIF4E:eIF4G interaction [3]; Conc 10 μM
  binding of eIF4G or 4E-BP1 with eIF4E, luminescence normalised to DMSO control, Average: 84.0%
eIF4E:eIF4G interaction [3]; Conc 30 μM
  binding of eIF4G or 4E-BP1 with eIF4E, luminescence normalised to DMSO control, Average: 77.0%
eIF4E:eIF4G interaction [3]; Conc 100 μM
  binding of eIF4G or 4E-BP1 with eIF4E, luminescence normalised to DMSO control, Average: 75.2%
eIF4E:eIF4G interaction [3]; Conc 300 μM
  binding of eIF4G or 4E-BP1 with eIF4E, luminescence normalised to DMSO control, Average: 79.2%
eIF4E:eIF4G interaction [3]; Conc 1000 μM
  binding of eIF4G or 4E-BP1 with eIF4E, luminescence normalised to DMSO control, Average: 79.6%

## CC[C@H](C(=O)N1CCCC[C@H]1C(=O)O[C@H](CCc1ccc(OC)c(OC)c1)c1ccccc1OCC(=O)NCCCCCCC(=O)N[C@H](C(=O)N1C[C@H](O)C[C@H]1C(=O)N[C@@H](C)c1ccc(-c2scnc2C)cc1)C(C)(C)C)c1cc(OC)c(OC)c(OC)c1 [dTAG^V-1]
MCL1 protein expression; C3-1 + WT eIF4E, 0.5 uM, n=3
  Quantification of MCL1 immunoblot signals using Image J, Average: 116.17
MCL1 protein expression; C3-1 + WT eIF4E, 1 uM, n=3
  Quantification of MCL1 immunoblot signals using Image J, Average: 110.20
MCL1 protein expression; C3-1, n=3
  Quantification of MCL1 (6hr) immunoblot signal using Image J, Average: 44
MCL1 protein expression; C3-1, 0.5 uM, n=3
  Quantification of MCL1 immunoblot signals using Image J, Average: 39.67
MCL1 protein expression; C3-1, 1 uM, n=3
  Quantification of MCL1 immunoblot signals using Image J, Average: 38.77
MCL1 protein expression; L85R, 0.5 uM, n=3
  Quantification of MCL1 immunoblot signals using Image J, Average: 69.30
MCL1 protein expression; L85R, 1 uM, n=3
  Quantification of MCL1 immunoblot signals using Image J, Average: 57.73
MCL1 protein expression; L134R, 0.5 uM, n=3
  Quantification of MCL1 immunoblot signals using Image J, Average: 63.30
MCL1 protein expression; L134R, 1 uM, n=3
  Quantification of MCL1 immunoblot signals using Image J, Average: 50.60
MCL1 protein expression; S209A rescue, n=3
  Quantification of MCL1 (6hr) immunoblot signal using Image J, Average: 117
MCL1 protein expression; S209A, 0.5 uM, n=3
  Quantification of MCL1 immunoblot signals using Image J, Average: 104.13
MCL1 protein expression; S209A, 1 uM, n=3
  Quantification of MCL1 immunoblot signals using Image J, Average: 110.17
MCL1 protein expression; W56A rescue, n=3
  Quantification of MCL1 (6hr) immunoblot signal using Image J, Average: 49
MCL1 protein expression; W56A, 0.5 uM, two experiments
  Quantification of MCL1 immunoblot signals using Image J, Average: 55.95
MCL1 protein expression; W56A, 1 uM, n=3
  Quantification of MCL1 immunoblot signals using Image J, Average: 64.70
MCL1 protein expression; W73F/L85R, 0.5 uM, n=3
  Quantification of MCL1 immunoblot signals using Image J, Average: 57.83
MCL1 protein expression; W73F/L85R, 1 uM, n=3
  Quantification of MCL1 immunoblot signals using Image J, Average: 56.77
MCL1 protein expression; W73F, 0.5 uM, n=3
  Quantification of MCL1 immunoblot signals using Image J, Average: 92.60
MCL1 protein expression; W73F, 1 uM, n=3
  Quantification of MCL1 immunoblot signals using Image J, Average: 99.57
MCL1 protein expression; WT rescue, n=3
  Quantification of MCL1 (6hr) immunoblot signal using Image J, Average: 99
MCL1 protein expression; eIF4E-dTAG clones
  MCL1 protein after treatment: decrease in MCL1 protein

## CC[C@H](O[C@H](C)CO)c1ccc(-c2ccccc2F)cc1NCCO [Compound 4]
eIF4E:eIF4G interaction [1]; 0.1 μM
  endogenous eIF4E:eIF4G interaction, electro-chemiluminescent signal, Average: 820654.4
eIF4E:eIF4G interaction [1]; 1 μM
  endogenous eIF4E:eIF4G interaction, electro-chemiluminescent signal, Average: 641951.8
eIF4E:eIF4G interaction [1]; 10 μM
  endogenous eIF4E:eIF4G interaction, electro-chemiluminescent signal, Average: 429514.6
eIF4E:eIF4G interaction [1]; 100 μM
  endogenous eIF4E:eIF4G interaction, electro-chemiluminescent signal, Average: 347571.1
eIF4E:eIF4G interaction [1]; read-out: EC50, eIF4G:eIF4E binding
  EC50: ~1.5 µM
[2]; ITC, eIF4E D127
  enthalpy DH: -10.2 kcal/mol
  entropic penalty -TDS: 0.6 ± 0.4 kcal/mol
[2]
  LE (ligand efficiency): 0.38 (kcal/mol)/heavy atom
[2]; ITC
  Kd: 0.09 µM
MCL1 protein expression; 25 μM with dTAG^V-1, C3-1 or L85R rescue line
  MCL1 expression on co-treatment: no additional loss of proliferation or MCL1 expression
MCL1 protein expression; 25 μM, absence of dTAG^V-1, C3-1, W73F and L85R models
  effect on MCL1 biomarker: no effect on the MCL1 biomarker or proliferation
eIF4E:eIF4G interaction [3]; HeLa cell lysates
  EC50: 1.4 µM
eIF4E:eIF4G interaction [3]; HeLa lysates, 100 µM, 30 min, single experiments Expt 1, Expt 2
  eIF4G:eIF4E HeLa, luminescence ratio normalised to DMSO control: 6.4% and 10%
eIF4E:eIF4G interaction [3]; Conc 0.03 μM
  binding of eIF4G or 4E-BP1 with eIF4E, luminescence normalised to DMSO control, Average: 97.2%
eIF4E:eIF4G interaction [3]; Conc 0.1 μM
  binding of eIF4G or 4E-BP1 with eIF4E, luminescence normalised to DMSO control, Average: 114.5%
eIF4E:eIF4G interaction [3]; Conc 0.3 μM
  binding of eIF4G or 4E-BP1 with eIF4E, luminescence normalised to DMSO control, Average: 82.4%
eIF4E:eIF4G interaction [3]; Conc 1 μM
  binding of eIF4G or 4E-BP1 with eIF4E, luminescence normalised to DMSO control, Average: 79.9%
eIF4E:eIF4G interaction [3]; Conc 3 μM
  binding of eIF4G or 4E-BP1 with eIF4E, luminescence normalised to DMSO control, Average: 54.2%
eIF4E:eIF4G interaction [3]; Conc 10 μM
  binding of eIF4G or 4E-BP1 with eIF4E, luminescence normalised to DMSO control, Average: 38.7%
eIF4E:eIF4G interaction [3]; Conc 30 μM
  binding of eIF4G or 4E-BP1 with eIF4E, luminescence normalised to DMSO control, Average: 33.9%
eIF4E:eIF4G interaction [3]; Conc 100 μM
  binding of eIF4G or 4E-BP1 with eIF4E, luminescence normalised to DMSO control, Average: 26.4%
eIF4E:eIF4G interaction [3]; Conc 300 μM
  binding of eIF4G or 4E-BP1 with eIF4E, luminescence normalised to DMSO control, Average: 22.8%
eIF4E:eIF4G interaction [3]; Conc 1000 μM
  binding of eIF4G or 4E-BP1 with eIF4E, luminescence normalised to DMSO control, Average: 28.1%
